Test results published in publication PMC9697873, “Construction and Evaluation of a Novel Organic Anion Transporter 1/3 CRISPR/Cas9 Double-Knockout Rat Model” (Pharmaceutics, 2022).
Counter-ions that a name gives are not always drawn. Like-named read-outs stand apart in the source and are kept apart here.

Experiments:
[1] = UTs concentration and renal uptake ratio detection in WT and KO rats; type: in vivo, rat; conditions: for plasma concentration of endogenous UT, KO compared with WT rats / renal uptake ratio of endogenous UT, KO compared with WT rats: 4W and/or 7W rats, n = 7; for urine concentration of endogenous UT, KO compared with WT rats: 12-h urine, 4W and 7W rats
Protocol: We collected blood, 12-h urine and kidney tissue samples of 4W and 7W WT and KO rats. The concentrations of UTs were measured by the liquid chromatography-tandem mass spectrometry (LC-MS/MS), which consisted of an Agilent 1260 liquid chromatography and a 6460 triple-quadrupole mass spectrometer operated in the electrospray ionization mode (Agilent Technologies, Santa Clara, CA, USA). Chromatographic separations were performed on an Agilent ZORBAX RR StableBond C18 analytical guard column (4.6 mm × 100 mm, 3.5 µm, Agilent Technologies, Santa Clara, CA, USA) at 30 °C. The MS parameters are shown in Supporting Information Table S1. […] The internal standard used in the positive ion mode was d3-creatinine, and in the negative ion mode was d5-hippuric acid.

[2] = Urinary excretion after intravenous drug cocktail in WT and KO rats; type: in vivo, rat; conditions: KO vs WT rats, i.v. cocktail, urine to 12 h
Protocol: The blood samples were centrifuged at 8000× g for 10 min and the supernatant was stored at −80 °C for detection.

[3] = furosemide ref 19; PAH ref 17, 52; cited from earlier work
[4] = Slc22a6/Slc22a8-/- rats, i.v. cocktail, mean ± S.D., n = 5
[5] = WT rats, i.v. cocktail, mean ± S.D., n = 5

Compound	plasma concentration of endogenous UT, KO compared with WT rats [1]	renal uptake ratio of endogenous UT, KO compared with WT rats [1]	also measured
Nc1ccccc1C(=O)C[C@@H](N)C(=O)O [D-kynurenine]	significantly increased	obviously decreased	
CN(C)c1nc2c(ncn2[C@@H]2O[C@H](CO)[C@@H](O)[C@H]2O)c(=O)[nH]1 [N2,N2-dimethylguanosine]			urine concentration of endogenous UT, KO compared with WT rats [1]: clearly decreased
CCc1ccc(OS(=O)(=O)[O-])cc1.[K+] [4-ethylphenyl sulfate]	significantly increased	obviously decreased	urine concentration of endogenous UT, KO compared with WT rats [1]: increased
O=C(O)[C@H]1O[C@@H](Oc2ccccc2)[C@H](O)[C@@H](O)[C@@H]1O [phenyl-β-D-glucuronide]	significantly lower	much higher	
CN1CC(=O)NC1=N [creatinine]	not significantly increased		
inulin			plasma concentration, KO compared with WT rats (KO vs WT rats, i.v. cocktail): much higher; AUC(0–12) (Slc22a6/Slc22a8-/- rats, i.v. cocktail (PAH 5 mg/kg, metformin 5 mg/kg, inulin 100 mg/kg), mean ± S.D., n = 5): 14,208.11 ± 1433.67 ng/mL·min; AUC(0–∞) [4]: 16,434.89 ± 1696.15 ng/mL·min; CL/F [4]: 6137.27 ± 639.31; Cmax [4]: 376.40 ± 36.13 ng/mL; MRT(0–12) [4]: 35.34 ± 4.08 min; MRT(0–∞) [4]: 37.99 ± 4.20 min; V1/F [4]: 185,957.58 ± 15,232.62 L/kg; t1/2α [4]: 5.23 ± 2.51 min; CL/F [5]: 7427.26 ± 724.03; Cmax [5]: 324.47 ± 33.41 ng/mL; MRT(0–12) [5]: 28.71 ± 5.54 min; MRT(0–∞) [5]: 34.03 ± 8.70 min; V1/F [5]: 241,341.96 ± 36672.44 L/kg; t1/2α [5]: 14.75 ± 4.72 min; urinary excretion / urine concentration, KO compared with WT rats [2]: significantly decreased
Cc1ccc(OS(=O)(=O)O)cc1 [p-cresol sulfate]	significantly increased	obviously decreased	
O=C(O)CNC(=O)c1ccccc1 [hippuric acid]	significantly increased	obviously decreased	
O=C(O)CNC(=O)C=Cc1ccccc1 [N-(cinnamoyl)glycine]	significantly lower	much higher	
O=c1[nH]c(=O)c2[nH]c(=O)[nH]c2[nH]1 [uric acid]	significantly increased	obviously decreased	
Cc1ccc(O[C@@H]2O[C@H](C(=O)O)[C@@H](O)[C@H](O)[C@H]2O)cc1 [p-cresol glucuronide]	significantly lower	much higher	
Nc1ccc(C(=O)NCC(=O)O)cc1 [PAH, p-aminohippuric acid]			plasma protein binding rate [3]: low
Cn1cnc2c(ncn2[C@@H]2O[C@H](CO)[C@@H](O)[C@H]2O)c1=O [1-methyl-inosine]	significantly increased	obviously decreased	urine concentration of endogenous UT, KO compared with WT rats [1]: clearly decreased
CC(=O)Nc1ccn([C@@H]2O[C@H](CO)[C@@H](O)[C@H]2O)c(=O)n1 [N-acetylcytidine]	significantly increased	obviously decreased	
OC[C@H]1O[C@@H](Oc2c[nH]c3ccccc23)[C@H](O)[C@@H](O)[C@@H]1O [3-indolyl-β-D-glucopyranoside]	significantly increased	obviously decreased	
CC(=O)N[C@@H](CCCN=C(N)N)C(=O)O [N-acetyl-L-arginine]	significantly increased	obviously decreased	
O=C(O)c1cc(=O)[nH]c(=O)[nH]1 [orotic acid]	significantly increased	obviously decreased	
O=S(=O)([O-])Oc1c[nH]c2ccccc12.[K+] [3-indoxyl sulfate potassium salt]	significantly increased	obviously decreased	
N[C@@H](CCCCNCC(=O)O)C(=O)O [N6-(carboxymethyl)-l-lysine]	significantly increased	obviously decreased	
